Values joined by “and” are separate entries in the source; they are usually repeats but may differ in a detail not shown here. Identical values can stand only once.
System: Human Dermal Microvascular Endothelial Cell (HDMEC)
Experiment: Promoting activity in vitro on human dermal microvascular endothelial cell (HDMEC) proliferation
Format: cell-based
Details: positive control: bFGF solution 0.1 μg/mL medium
Description: The wound healing-promoting activity of test compounds were investigated in terms of the promotion activity on HDMEC proliferation in the following manner. As a HDMEC, normal adult dermal microvascular endothelial cells (Hybridoma (1996): Vol. 15 (4), pp 279-288) were used in this study.
A suspension of HDMEC mentioned above (2×10^4 cells/mL; Cryo HMVEC-Ad; trademark registered by Cambrex Inc.) were seeded on 48-well plate (250 μL/well). The cells were cultured in a proliferation medium (BletKit EGM-2-MV; trademark registered by Cambrex Inc.) for one day. After substituting an assay medium (450 μL, bFGF-, EGF- and VEGF-free BletKit EGM-2-MV; trademark registered by Cambrex Inc.) for the proliferation medium, a dimethylsulfoxide solution of the test compound (0.1 v/v %, 50 μL) was added to each well and the cells were cultured for 96 hours. After culturing, the assay medium was removed by aspiration and the residual cells were suspended in Isoton II solution (500 μL; Beckmann-Coulter Ltd.) containing 0.05% trypsin and 0.02% ethylenediaminetetraacetic acid. The suspension was diluted (11-fold) with Isoton II solution (5 mL) and the number of cells were counted by Coulter-Counter Z1 (Beckmann-Coulter Ltd.).
As a negative control group, HDMEC was cultured in the same manner, but in the absence of the test compound, as described above. […]

Question: What does the source list for “Positive control: bFGF solution (0.1 μg/mL medium) used instead of the test compound solution; basic fibroblast growth factor”?
Answer: Number of cells after 96 hours: 1.31 × 10^4 cells and 1.81 × 10^4 cells and 2.03 × 10^4 cells; Number of cells after 96 hours (listed as positive control): 1.95 × 10^4 cells

Reference: US8809360B2, “Use of a pyridine compound for the preparation of a medicament for the treatment of skin lesions” (Mitsubishi Tanabe Pharma Corporation, priority 2004, dated 2014)
